Assay results taken from ChEMBL document CHEMBL3045853, “Bifenthrin longevity at the termiticidal application rate” (2012).
Active and inactive are the calls of the source. The calls are words filed in the database; no cut-off is given here.

Key:
Reticulitermes flavipes [1] = assay: Termiticidal activity against Reticulitermes flavipes assessed as mortality at 0.6 ug/g after 10 months by forced exposure test; format: functional
Reticulitermes flavipes [2] = assay: Termiticidal activity against Reticulitermes flavipes assessed as mortality at 0.6 ug/g after 5 months by forced exposure test; format: functional
Reticulitermes flavipes [3] = assay: Termiticidal activity against Reticulitermes flavipes assessed as mortality at 0.6 ug/g by forced exposure test; format: functional
Reticulitermes flavipes [4] = assay: Termiticidal activity against Reticulitermes flavipes after 7 days by forced exposure test; format: functional, organism-based
Reticulitermes flavipes [5] = assay: Termiticidal activity against Reticulitermes flavipes after 3 days by forced exposure test; format: functional
Reticulitermes flavipes [6] = assay: Termiticidal activity against Reticulitermes flavipes assessed as mortality after 4 days by forced exposure test; format: functional
Reticulitermes flavipes [7] = assay: Termiticidal activity against Reticulitermes flavipes assessed as mortality at 0.06 ug/g after 7 days by forced exposure test; format: functional
Reticulitermes flavipes [8] = assay: Termiticidal activity against Reticulitermes flavipes assessed as mortality at 0.6 ug/g after 3 days by forced exposure test; format: functional
Reticulitermes flavipes [9] = assay: Termiticidal activity against Reticulitermes flavipes assessed as mortality at 6.9 ug/g after 7 days by forced exposure test; format: functional
Reticulitermes flavipes [10] = assay: Termiticidal activity against Reticulitermes flavipes at 0.69 ug/g after 7 days by forced exposure test; format: functional, organism-based

`Cc1c(COC(=O)[C@@H]2[C@H](/C=C(\Cl)C(F)(F)F)C2(C)C)cccc1-c1ccccc1` [BIFENTHRIN] was tested, and the mortality (Reticulitermes flavipes [1]) was 73.9%, the mortality (Reticulitermes flavipes [2]) was 63% and the mortality (Reticulitermes flavipes [3]) was 100%. The Activity (Reticulitermes flavipes [4]) was “inactive”, the LC50 (Reticulitermes flavipes [5]) was 0.074 µg/g and the LC95 (Reticulitermes flavipes [5]) was 0.724 µg/g.
`N#Cc1nn(-c2c(Cl)cc(C(F)(F)F)cc2Cl)c(N)c1[S+]([O-])C(F)(F)F` (configuration not stated) [FIPRONIL] was tested, and the LC50 (Reticulitermes flavipes [6]) was 0.49 µg/g, the mortality (Reticulitermes flavipes [7]) was 100% and the mortality (Reticulitermes flavipes [8]) was 100%.
With `O=[N+]([O-])/N=C1\NCCN1Cc1ccc(Cl)nc1` [IMIDACLOPRID] the mortality (Reticulitermes flavipes [9]) was 80%, the Activity (Reticulitermes flavipes [10]) was “inactive” and the Activity (Reticulitermes flavipes [5]) was “inactive”.
